# Source: US6737383B1, “Herbicidal oxadiazolidines” (priority 1999, dated 2004)
# Tests used:
# [1] = tested on: blackgrass; assay: Test B pre/postemergence blackgrass; format: in vivo, Alopecurus myosuroides
# Method in brief: (§1)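 Response is a visual 0-to-10 score relative to untreated plants, where 0 means no effect and 10 means complete control, taken twelve to sixteen days after application. Treatments went onto soil at planting and onto foliage of 1- to 4-leaf plants, using a surfactant-containing non-phytotoxic solvent.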
# [2] = tested on: cocklebur; assay: Test B pre/postemergence cocklebur; format: in vivo, Xanthium strumarium
# Method in brief: as §1
# [3] = tested on: giant foxtail; assay: Test B pre/postemergence giant foxtail; format: in vivo, Setaria faberii
# Method in brief: as §1
# [4] = tested on: morningglory; assay: Test B pre/postemergence morningglory; format: in vivo, Ipomoea hederacea
# Method in brief: as §1
# [5] = tested on: pigweed; assay: Test B pre/postemergence pigweed; format: in vivo, Amaranthus retroflexus
# Method in brief: as §1
# [6] = tested on: rape; assay: Test B pre/postemergence rape; format: in vivo, Brassica napus
# Method in brief: as §1
# [7] = tested on: soybean; assay: Test B pre/postemergence soybean; format: in vivo, Glycine max
# Method in brief: as §1
# [8] = tested on: sugar beet; assay: Test B pre/postemergence sugar beet; format: in vivo, Beta vulgaris
# Method in brief: as §1
# [9] = tested on: velvetleaf; assay: Test B pre/postemergence velvetleaf; format: in vivo, Abutilon theophrasti
# Method in brief: as §1
# [10] = tested on: wheat; assay: Test B pre/postemergence wheat; format: in vivo, Triticum aestivum
# Method in brief: as §1
# [11] = tested on: wild oat; assay: Test B pre/postemergence wild oat; format: in vivo, Avena fatua
# Method in brief: as §1
# [12] = tested on: purple nutsedge; assay: Test B pre/postemergence purple nutsedge; format: in vivo, Cyperus rotundus
# Method in brief: as §1
# [13] = tested on: rice; assay: Test B flood test rice; format: in vivo, Oryza sativa
# Method in brief: (§2)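 Read-out is a visual response score from 0 (no effect) to 10 (complete control), assigned by comparison with untreated controls. Treatment was applied at the 2-leaf stage, and plants stayed in the greenhouse for twelve to sixteen days before scoring.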
# [14] = tested on: smallflower flatsedge; assay: Test B flood test smallflower flatsedge; format: in vivo, Cyperus difformis
# Method in brief: as §2
# [15] = tested on: duck salad; assay: Test B flood test duck salad; format: in vivo, Heteranthera limosa
# Method in brief: as §2
# [16] = tested on: bamyardgrass; assay: Test B flood test barnyardgrass; format: in vivo, Echinochloa crus-galli
# Method in brief: as §2
# [17] = Postemergence, Rate 31 g/ha, visual rating, scale 0 to 10 (0 no effect, 10 complete control)
# [18] = Preemergence, Rate 31 g/ha, visual rating, scale 0 to 10 (0 no effect, 10 complete control)
# [19] = Preemergence, Rate 62 g/ha, scale of 0 to 10 where 0 is no effect and 10 is complete control
# [20] = Rate 16 g/ha, Postemergence, scale 0 to 10, 0 no effect, 10 complete control
# [21] = Rate 16 g/ha, Preemergence, scale 0 to 10, 0 no effect, 10 complete control
# [22] = Rate 62 g/ha, Postemergence, scale 0 to 10 (0 no effect, 10 complete control)
# [23] = Rate 125 g/ha, Postemergence, scale of 0 to 10 where 0 is no effect and 10 is complete control
# [24] = Rate 125 g/ha, Preemergence, scale of 0 to 10 where 0 is no effect and 10 is complete control
# [25] = Rate 16 g/ha, head printed Pre-emergence (flood test species), scale 0 to 10, 0 no effect, 10 complete control
# [26] = Rate 31 g/ha, Pre-emergence section (flood test species), scale 0 to 10
# [27] = Rate 62 g/ha, headed Pre-emergence (flood test species), scale 0 to 10 (0 no effect, 10 complete control)
# [28] = Rate 125 g/ha, Pre-emergence, flood test species, scale 0 to 10 where 0 is no effect and 10 is complete control
# [29] = Rate 250 g/ha, Pre-emergence, flood-test species, scale 0 to 10, 0 is no effect, 10 is complete control
# [30] = Rate 500 g/ha, Pre-emergence, flood test species, scale 0 to 10 (0 no effect, 10 complete control)
structure (smiles),measurement,setting,value
C=CCCCn1c(=O)on(C(=O)N(c2ccc(F)cc2)C(C)C)c1=O [Compound 291],Blackgrass plant response rating,[1]; [17],0
same,Blackgrass plant response rating,[1]; [18],0
same,Blackgrass plant response rating,[1]; [19],0
same,Blackgrass plant response rating,[1]; [20],0
same,Blackgrass plant response rating,[1]; [21],0
same,Blackgrass plant response rating,[1]; [22],1
same,Blackgrass plant response rating,[1]; [23],2
same,Blackgrass plant response rating,[1]; [24],8
same,Cocklebur plant response rating,[2]; [17],0
same,Cocklebur plant response rating,[2]; [18],0
same,Cocklebur plant response rating,[2]; [19],0
same,Cocklebur plant response rating,[2]; [20],0
same,Cocklebur plant response rating,[2]; [21],0
same,Cocklebur plant response rating,[2]; [22],0
same,Cocklebur plant response rating,[2]; [23],0
same,Cocklebur plant response rating,[2]; [24],0
same,Giant foxtail plant response rating,[3]; [17],0
same,Giant foxtail plant response rating,[3]; [18],8
same,Giant foxtail plant response rating,[3]; [19],8
same,Giant foxtail plant response rating,[3]; [20],0
same,Giant foxtail plant response rating,[3]; [21],7
same,Giant foxtail plant response rating,[3]; [22],0
same,Giant foxtail plant response rating,[3]; [23],0
same,Giant foxtail plant response rating,[3]; [24],9
same,Morningglory plant response rating,[4]; [17],1
same,Morningglory plant response rating,[4]; [18],0
same,Morningglory plant response rating,[4]; [19],0
same,Morningglory plant response rating,[4]; [20],1
same,Morningglory plant response rating,[4]; [21],0
same,Morningglory plant response rating,[4]; [22],4
same,Morningglory plant response rating,[4]; [23],4
same,Morningglory plant response rating,[4]; [24],0
same,Redroot pigweed plant response rating,[5]; [17],0
same,Redroot pigweed plant response rating,[5]; [18],0
same,Redroot pigweed plant response rating,[5]; [19],0
same,Redroot pigweed plant response rating,[5]; [20],0
same,Redroot pigweed plant response rating,[5]; [21],0
same,Redroot pigweed plant response rating,[5]; [22],0
same,Redroot pigweed plant response rating,[5]; [23],0
same,Redroot pigweed plant response rating,[5]; [24],0
same,Rape plant response rating,[6]; [17],0
same,Rape plant response rating,[6]; [18],0
same,Rape plant response rating,[6]; [19],0
same,Rape plant response rating,[6]; [20],0
same,Rape plant response rating,[6]; [21],0
same,Rape plant response rating,[6]; [22],0
same,Rape plant response rating,[6]; [23],1
same,Rape plant response rating,[6]; [24],0
same,Soybean plant response rating,[7]; [17],1
same,Soybean plant response rating,[7]; [18],0
same,Soybean plant response rating,[7]; [19],0
same,Soybean plant response rating,[7]; [20],1
same,Soybean plant response rating,[7]; [21],0
same,Soybean plant response rating,[7]; [22],1
same,Soybean plant response rating,[7]; [23],3
same,Soybean plant response rating,[7]; [24],0
same,Sugarbeets plant response rating,[8]; [17],0
same,Sugarbeets plant response rating,[8]; [18],0
same,Sugarbeets plant response rating,[8]; [19],0
same,Sugarbeets plant response rating,[8]; [20],0
same,Sugarbeets plant response rating,[8]; [21],0
same,Sugarbeets plant response rating,[8]; [22],0
same,Sugarbeets plant response rating,[8]; [23],0
same,Sugarbeets plant response rating,[8]; [24],0
same,Velvetleaf plant response rating,[9]; [17],0
same,Velvetleaf plant response rating,[9]; [18],0
same,Velvetleaf plant response rating,[9]; [19],0
same,Velvetleaf plant response rating,[9]; [20],0
same,Velvetleaf plant response rating,[9]; [21],0
same,Velvetleaf plant response rating,[9]; [22],0
same,Velvetleaf plant response rating,[9]; [23],0
same,Velvetleaf plant response rating,[9]; [24],0
same,Wheat plant response rating,[10]; [17],0
same,Wheat plant response rating,[10]; [18],0
same,Wheat plant response rating,[10]; [19],0
same,Wheat plant response rating,[10]; [20],0
same,Wheat plant response rating,[10]; [21],0
same,Wheat plant response rating,[10]; [22],0
same,Wheat plant response rating,[10]; [23],0
same,Wheat plant response rating,[10]; [24],0
same,Wild oats plant response rating,[11]; [17],0
same,Wild oats plant response rating,[11]; [18],0
same,Wild oats plant response rating,[11]; [19],0
same,Wild oats plant response rating,[11]; [20],0
same,Wild oats plant response rating,[11]; [21],0
same,Wild oats plant response rating,[11]; [22],0
same,Wild oats plant response rating,[11]; [23],0
same,Nutsedge plant response rating,[12]; [17],0
same,Nutsedge plant response rating,[12]; [18],0
same,Nutsedge plant response rating,[12]; [19],0
same,Nutsedge plant response rating,[12]; [20],0
same,Nutsedge plant response rating,[12]; [21],0
same,Nutsedge plant response rating,[12]; [22],0
same,Nutsedge plant response rating,[12]; [23],0
same,Nutsedge plant response rating,[12]; [24],0
same,Rice plant response rating,[13]; [25],0
same,Rice plant response rating,[13]; [26],0
same,Rice plant response rating,[13]; [27],0
same,Rice plant response rating,[13]; [28],2
same,Rice plant response rating,[13]; [29],0
same,Rice plant response rating,[13]; [30],0
same,S. Flatsedge plant response rating,[14]; [25],0
same,S. Flatsedge plant response rating,[14]; [26],0
same,S. Flatsedge plant response rating,[14]; [27],0
same,S. Flatsedge plant response rating,[14]; [28],0
same,S. Flatsedge plant response rating,[14]; [29],0
same,S. Flatsedge plant response rating,[14]; [30],0
same,Ducksalad plant response rating,[15]; [25],0
same,Ducksalad plant response rating,[15]; [26],0
same,Ducksalad plant response rating,[15]; [27],0
same,Ducksalad plant response rating,[15]; [28],0
same,Ducksalad plant response rating,[15]; [29],0
same,Ducksalad plant response rating,[15]; [30],0
same,Barnyardgrass plant response rating,[16]; [25],0
same,Barnyardgrass plant response rating,[16]; [26],2
same,Barnyardgrass plant response rating,[16]; [27],2
same,Barnyardgrass plant response rating,[16]; [28],4
same,Barnyardgrass plant response rating,[16]; [29],4
same,Barnyardgrass plant response rating,[16]; [30],6
